Data from the supplement of paper PMC3974653.
Counter-ions that a name gives are not always drawn.

Test system: MTT (mouse pheochromocytoma)
Assay: IC50 of cell viability (ATP content)
Details: (24 or 48 h)
Outline: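 Cells of the MTT mouse pheochromocytoma line, 5 µl per well at 200,000 cells/ml, were grown overnight at 37°C, 5% CO2 in white 1536-well plates with DMEM, 5% FBS and 1% horse serum. Pintool transfer then delivered 23 nl of library compound in DMSO, giving 8 final concentrations from 0.5 nM to 46 µM, for an exposure of 24 or 48 hrs. Luminescence from CellTiter-Glo was read after 15 minutes and referenced to positive-control wells (100%) and DMSO wells (0%). IC50 was calculated with a four-parameter logistic fit.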

SMILES | IC50 of cell viability [µM]
CNC(C)C(O)c1ccc(O)cc1 (stereo unspecified) [P-HYDROXYEPHEDRINE HYDROCHLORIDE] | > 46
CNC(C)[C@@H](O)c1ccc(O)cc1 (stereo partly specified) [P-HYDROXYEPHEDRINE HYDROCHLORIDE] | > 46
CCC(=O)c1ccc(O)cc1 [P-HYDROXYPROPIOPHENONE] | > 46
Nc1ccc(N)cc1 [P-PHENYLENEDIAMINE] | > 46
O=C1c2cccc3c2[C@@H](CCC3)CN1[C@@H]1CN2CCC1CC2 [PALONOSETRON HYDROCHLORIDE] | > 46
Cn1c(=O)c2[nH]c(Br)nc2n(C)c1=O [PAMABROM] | > 46
CCOC(=O)Cn1cccc1-c1nc(-c2ccc(OC)cc2)c(-c2ccc(OC)cc2)s1 [PAMICOGREL] | > 46
CC(=O)OC1C([N+]2(C)CCCCC2)C[C@H]2C3CC[C@H]4C[C@H](OC(C)=O)C([N+]5(C)CCCCC5)CC4(C)[C@@H]3CCC12C (stereo partly specified) [PANCURONIUM] | > 46
CC(C)(CO)[C@@H](O)C(=O)NCCC(=O)NCCSSCCNC(=O)CCNC(=O)[C@H](O)C(C)(C)CO [PANTETHINE] | > 46
COc1ccnc(C[S+]([O-])c2nc3cc(OC(F)F)ccc3[nH]2)c1OC (stereo unspecified) [PANTOPRAZOLE] | > 46
Clc1ccc(Cl)cc1 [PARADICHLOROBENZENE] | > 46
CC1OC(C)OC(C)O1 (stereo unspecified) [PARALDEHYDE] | > 46
c1ccc2c(c1)Sc1ccccc1N2CCN1CCCC1 [PARATHIAZINUM] | > 46
CCOc1ccc(C(=O)OCCN(CC)CC)cc1 [PARETHOXYCAINE HYDROCHLORIDE] | > 46
C#CCOC(C(=O)OCCN(C)C)(c1ccccc1)c1ccccc1 [PARGEVERINUM] | > 46
NC[C@@H]1O[C@H](OC2[C@@H](CO)O[C@@H](OC3[C@H](O)[C@H](N)C[C@H](N)[C@H]3OC3O[C@H](CO)[C@@H](O)[C@H](O)[C@@H]3N)[C@H]2O)C(N)[C@H](O)[C@@H]1O (stereo partly specified) [PAROMOMYCIN SULFATE] | > 46
C[C@H]1COc2c(C3(N)CC3)c(F)cc3c(=O)c(C(=O)O)cn1c23 [PAZUFLOXACIN] | > 46
CC(C(=O)O)c1ccc(/C=C2\CCCCC2=O)cc1 (stereo unspecified) [PELUBIPROFEN] | > 46
Nc1nc(O)c2c(CCc3ccc(C(=O)N[C@H](CCC(=O)[O-])C(=O)[O-])cc3)c[nH]c2n1 [PEMETREXED] | > 46
Cc1cccn2c(=O)c(-c3nnn[n-]3)cnc12 [PEMIROLAST POTASSIUM] | > 46
Nc1nc(O)c(-c2ccccc2)o1 [PEMOLINE] | > 46
CN1C(C)(C)CCCC1(C)C.O=C(O)C(O)C(O)C(=O)O [PEMPIDINE TARTRATE] | > 46

SMILES | IC50 of cell viability [µM]
Nc1nc(O)c2ncn(CCC(CO)CO)c2n1 [PENCICLOVIR SODIUM] | > 46
CCCCCC1Nc2cc(C(F)(F)F)c([S+](N)(=O)[O-])cc2[S+](=O)([O-])N1 (stereo unspecified) [PENFLUTIZIDE] | > 46
CC(C)(S)[C@@H](N)C(=O)O [PENICILLAMINE] | > 46
CCCCCC(O)C1C(=O)OC(C)C(O)C=CC=CC=CC=CC=C(C)C(O)C(O)C(O)CC(O)CC(O)CC(O)CC(O)CC1O (stereo unspecified) [PENTAMYCIN] | > 46
OCCOC[C@H]1O[C@H](OCCO)[C@H](OCCO)[C@@H](OCCO)[C@@H]1OCCO.OC[C@H]1O[C@H](O)[C@H](O)[C@@H](O)[C@@H]1O [PENTASTARCH] | > 46
CNC1C(O)C(OC2C(N)CC(N)C(OC3OC(CN)=CCC3N)C2O)OCC1(C)O (stereo unspecified) [PENTISOMICINUM] | > 46
CCCC(C)C1(CC)C(=O)N\C(=N/C1=O)O (stereo unspecified) [PENTOBARBITAL] | > 46
C1CCc2nnnn2CC1 [PENTYLENETETRAZOLE] | > 46
Cc1c(N)nc([C@@H](CC(N)=O)NC[C@H](N)C(N)=O)nc1C(=O)N[C@H](C(=O)N[C@@H](C)[C@@H](O)[C@@H](C)C(=O)N[C@H](C(=O)NCCc1nc(-c2nc(C(=O)NCCCN[C@H](C)c3ccccc3)cs2)cs1)[C@H](C)O)[C@@H](O[C@H]1O[C@@H](CO)[C@H](O)[C@@H](O)[C@H]1O[C@H]1O[C@@H](CO)[C@@H](O)[C@H](OC(N)=O)[C@H]1O)c1cnc[nH]1 [PEPLOMYCIN SULFATE] | > 46
CC(C)CC(=O)N[C@H](C(=O)N[C@H](C(=O)N[C@@H](CC(C)C)[C@@H](O)CC(=O)N[C@@H](C)C(=O)N[C@@H](CC(C)C)[C@@H](O)CC(=O)O)C(C)C)C(C)C [PEPSTATINUM] | > 46
CC(=O)OO [PERACETIC ACID] | > 46
FC(F)(F)C(F)(F)C(F)(F)C(F)(F)C(F)(F)C(F)(F)F [PERFLEXANE] | > 46
FC1(F)C(F)(F)C(F)(F)C2(F)C(F)(F)C(F)(F)C(F)(F)C(F)(F)C2(F)C1(F)F (stereo unspecified) [PERFLUNAFENUM] | > 46
CCCN1C[C@H](CSC)C[C@@H]2c3cccc4[nH]cc(c34)C[C@H]21 [PERGOLIDE METHANESULFONATE] | > 46
CC1(C)C(\C=C(/Cl)Cl)C1C(=O)OCC2=CC=CC(OC3=CC=CC=C3)=C2 (stereo unspecified) [PERMETHRIN] | > 46
C=C(Nc1ccc(OCC)cc1)Nc1ccc(OCC)cc1 [PHENACAINE HYDROCHLORIDE] | > 46
NC(=O)NC(=O)Cc1ccccc1 [PHENACEMIDE] | > 46
NC(=O)NNc1ccccc1 [PHENICARBAZIDUM] | > 46
O=C(O)C(Cc1cc(I)c(O)c(I)c1)c1ccccc1 (stereo unspecified) [PHENIODOLUM NATRICUM] | > 46
O=S(=O)([O-])c1ccc(O)cc1 [PHENOLSULFONIC ACID] | > 46
CC(C)=CC1C(C(=O)OCc2cccc(Oc3ccccc3)c2)C1(C)C (stereo unspecified) [PHENOTHRIN] | > 46
CC1=CC=C(C=C1)N(C\C2=N\CCN2)C3=CC=CC(=C3)O [PHENTOLAMINE] | > 46

SMILES | IC50 of cell viability [µM]
CCCCC1C(=O)N(c2ccccc2)N(c2ccccc2)C1=O [PHENYLBUTAZONE] | > 46
NNc1ccccc1 [PHENYLHYDRAZINE HYDROCHLORIDE] | > 46
CCC(O)c1ccccc1 (stereo unspecified) [PHENYLPROPANOL] | > 46
CN(C)CCOc1ccccc1Cc1ccccc1 [PHENYLTOLOXAMINE CITRATE] | > 46
O=C1NC(=O)C(c2ccccc2)(c2ccccc2)N1 [PHENYTOIN] | > 46
Oc1cc(O)cc(O)c1 [PHLOROGLUCINOL] | > 46
CCN(CC)C(=O)/C(Cl)=C(\C)OP(=O)(OC)OC [PHOSPHAMIDON] | > 46
O=C(O)c1ccccc1C(=O)Nc1ccc([S+](=O)([O-])Nc2nccs2)cc1 [PHTHALYLSULFATHIAZOLE] | > 46
CCCCCCCCCCCCCCCC(=O)O[C@@H]1CC(C)=C(\C=C/C(C)=C\C=C/C(C)=C\C=C\C=C(C)\C=C\C=C(C)\C=C\C2=C(C)C[C@@H](OC(=O)CCCCCCCCCCCCCCC)CC2(C)C)C(C)(C)C1 [PHYSALIEN with TLC] | > 46
CNC(=O)Oc1ccc2c(c1)[C@]1(C)CCN(C)[C@@H]1N2C [PHYSOSTIGMINE] | > 46
Nc1c(NC/C=C\COc2cc(CN3CCCCC3)ccn2)c(=O)c1=O [PIBUTIDINE HYDROCHLORIDE] | > 46
Cc1ccccn1 [PICOLINE, ALPHA] | > 46
CC(C)(O)C1C2OC(=O)C1C1(O)CC3OC34C(=O)OC2C14C (stereo unspecified) [PICROTOXIN] | > 46
Clc1ccccc1-c1nc(-c2ccncc2)no1 [PIFEXOLUM] | > 46
CC[C@@H]1C(=O)OC[C@@H]1Cc1cncn1C [PILOCARPINE] | > 46
Cc1cccc(C)c1NC(=O)CC12CCCN1CCC2 [PILSICAINIDE HYDROCHLORIDE] | > 46
CC[C@@H]1/C=C(\C)C[C@H](C)C[C@H](OC)[C@H]2O[C@@](O)(C(=O)C(=O)N3CCCC[C@H]3C(=O)O[C@H](/C(C)=C/[C@@H]3CC[C@H](Cl)[C@H](OC)C3)[C@H](C)[C@@H](O)CC1=O)[C@H](C)C[C@@H]2OC [PIMECROLIMUS] | > 46
COc1ccc(-c2nc3ccc(C4=C(C)CC(=O)NN4)cc3[nH]2)cc1 [PIMOBENDAN] | > 46
CC(N/C(=N\C#N)Nc1ccncc1)C(C)(C)C (stereo unspecified) [PINACIDIL] | > 46
Cc1cccc(C)c1NC(=O)CN1CCCCCC1 [PINCAINIDUM] | > 46
CC(C)NCC(O)COc1cccc2[nH]ccc12 (stereo unspecified) [PINDOLOL] | > 46
CCc1ccc(CCOc2ccc(CC3SC(=O)NC3=O)cc2)nc1.Cl (stereo unspecified) [PIOGLITAZONE HYDROCHLORIDE] | > 46
